Test results published in patent EP4741392A1, “1H-PYRAZOLO[4,3-C]PYRIDINE COMPOUND, AND COMPOSITION THEREOF AND USE THEREOF” (Shenzhen TargetRx Co., Ltd., priority 2023, dated 2025).
Like-named read-outs stand apart in the source and are kept apart here.

Experiments:
Type in all cases: cell-based
NIH/3T3 BTK C481S cells = assay: Phosphor-BTK(Y223) assay, adherent cells; details: read-out: NIH/3T3 BTK-C481S pBTK
Description: (§1) The purpose of this assay was to simply, quickly and directly detect the level of endogenous BTK phosphorylation in cells.
(§2) The steps for handling adherent cells were as follows: • 1) NIH/3T3 BTK WT cells (7.5 k/well) and NIH/3T3 BTK C481S cells (10 k/well) were plated in a 96-well plate, respectively, and cultured at 37 °C and 5% CO2 overnight. • 2) A 3-fold final concentration gradient dilution of a compound was prepared, and 50 µL of it was taken and added to 100 µL of cell culture. 0.5% DMSO was used as a positive control for cell growth. • 3) The plate was incubated at 37 °C and 5% CO2 for 0.5 h. • 4) Na3VO4 at a final concentration of 1mM was added, and the plate was incubated at 37 °C and 5% CO2 for 2 hours. • 5) During the incubation, the following reagents were prepared: • 1x added lysis buffer: 3 vol ddH2O + 1 vol 4x lysis buffer + 100x blocking reagent. • p-BTK (Y223) cryptate-antibody and p-BTK (Y223) d2-antibody working solutions: 1 volume of each cryopreserved antibody (stored at - 20 °C) was added to 19 times the volume of assay buffer (stored at 4 °C). • 6) After the incubation was completed, the medium was removed and 50 µL of 1x added lysis buffer was added. The plate was centrifuged at 500 rpm at room temperature for 30 min. • 7) The lysate was mixed well and 16 µL of it was transferred to a 384-well plate. 1 × added lysis buffer was used as a blank control. • 8) 4 µL of pre-mixed working solutions of the two antibodies (cryptate Ab:d2 Ab = 1:1) was added, and the plate was sealed. • 9) The plate was incubated at room temperature overnight. 10) The plate was read at 665nm and 620nm using Biotek cytation3.0 microplate reader, and the ratio of 665/620nm of each well was calculated.
(§3) The IC50 (half-maximal phosphorylation inhibitory concentration) of the phosphorylated BTK Y223 of the compound was obtained using the following nonlinear fitting formula: Y = Bottom + (Top−Bottom)/(1+10^(∧)((LogIC50−X)*HillSlope)) [formula] • X: Log value of the compound concentration • Y: Inhibition rate (% inhibition) • Top: Maximum response • Bottom: Baseline response • HillSlope: Slope of the curve
(§4) The formula for calculating cell phosphorylation inhibition rate (inhibition rate %) was: Inhibition rate% = 1−(eachconcentrationwell-blankwell)/(positivecontrolwell−blankwell) [formula]

NIH/3T3 BTK WT cells = assay: Phosphor-BTK(Y223) assay, adherent cells; details: read-out: NIH/3T3 BTK-WT pBTK
Description: as §1, §2, §3, §4

Ramos cells with BTK WT = assay: Phosphor-BTK(Y223) assay, suspended cells; details: phosphorylated BTK Y223, Ramos cells with BTK WT
Description: as §1
The steps for handling suspended cells were as follows: • 1) Ramos cells with BTK WT (2.5 k/well), BTK C481S (2.5 k/well), or BTK T474I (2.5 k/well) were plated in a 96-well plate, respectively. A compound of different concentration gradients was added using Tecan D300e, and the plate was incubated at 37 °C and 5% CO2 for 2 hours. • 2) 8.33 µL of 20 mM Na3VO4 was added to bring the final concentration to 5 mM, and the plate was incubated at 37 °C and 5% CO2 for 3 h. • 3) During the incubation, the following reagents were prepared: • 4x added lysis buffer: 24 vol 4x lysis buffer + 1 vol 25x blocking reagent. • p-BTK (Y223) cryptate-antibody and p-BTK (Y223) d2-antibody working solutions: 1 volume of each cryopreserved antibody (stored at - 20 °C) was added to 38 times the volume of assay buffer (stored at 4 °C), and mixed well. • 4) After the incubation was completed, 11.1 µL of 4x added lysis buffer was directly added. The plate was shaken at 800 rpm at room temperature for 30 min. • 5) The lysate was mixed well and 16 µL of it was transferred to a 384-well plate. 1 × added lysis buffer was used as a blank control. • 6) 4 µL of pre-mixed working solutions of the two antibodies (cryptate Ab:d2 Ab = 1:1) was added, and the plate was sealed. • 7) The plate was incubated at room temperature overnight. • 8) The plate was read at 665nm and 620nm using Biotek cytation3.0 microplate reader, and the ratio of 665/620nm of each well was calculated. Data analysis: IC50 was calculated using GraphPad Prism 7.0 software.
as §3, §4

[1] = Mus musculus, NIH3T3, phosphorylated BTK Y223, NIH/3T3 BTK C481S cells
[2] = Mus musculus, NIH3T3, phosphorylated BTK Y223, NIH/3T3 BTK WT cells

Molecule | IC50 (Ramos cells with BTK WT; Homo sapiens, Ramos) | IC50 (Ramos cells with BTK WT) | IC50 (NIH/3T3 BTK C481S cells; [1]) | IC50 (NIH/3T3 BTK WT cells; [2]) | IC50 (NIH/3T3 BTK C481S cells; phosphorylated BTK Y223, NIH/3T3 BTK C481S cells) | IC50 (NIH/3T3 BTK WT cells; phosphorylated BTK Y223, NIH/3T3 BTK WT cells)
COc1ccc(F)cc1C(=O)NCc1ccc(-c2ncc(-c3ccc(F)cn3)c3[nH]nc(N)c23)c(C)c1 [Example 83, N-(4-(3-amino-7-(5-fluoropyridin-2-yl)-1H-pyrazolo[4,3-c]pyridin-4-yl)-3-methylbenzyl)-5-fluoro-2-methoxybenzamide] | > 50 nM |  | > 50 nM | 10 to 50 nM |  | 
COc1ccc(F)cc1C(=O)NCc1ccc(-c2nc(-c3ccccc3C)cc3[nH]nc(N)c23)cc1 [Example 87, N-(4-(3-amino-6-(o-tolyl)-1H-pyrazolo[4,3-c]pyridin-4-yl)benzyl)-5-fluoro-2-methoxybenzamide] | > 50 nM |  | > 50 nM | > 50 nM |  | 
COc1ccc(F)cc1C(=O)NCc1ccc(-c2nc(-c3ccc(C(=O)O)cc3)cc3[nH]nc(N)c23)cc1 [Example 90, 4-(3-amino-4-(4-((5-fluoro-2-methoxybenzoylamino)methyl)phenyl)-1H-pyrazolo[4,3-c]pyridin-6-yl)benzoic acid] | > 50 nM |  | > 50 nM | > 50 nM |  | 
COc1ccc(F)cc1C(=O)NCc1ccc(-c2nc(C3CCS(=O)(=O)CC3)cc3[nH]nc(N)c23)cc1 [Example 93, N-(4-(3-amino-6-(1,1-dioxidotetrahydro-2H-thiopyran-4-yl)-1H-pyrazolo[4,3-c]pyridin-4-yl)benzyl)-5-fluoro-2-methoxybenzamide] | > 50 nM |  | > 50 nM | > 50 nM |  | 
COc1ccc(F)cc1C(=O)NCc1ccc(-c2nc(Cl)cc3[nH]nc(N)c23)cc1 [Example 94, N-(4-(3-amino-6-chloro-1H-pyrazolo[4,3-c]pyridin-4-yl)benzyl)-5-fluoro-2-methoxybenzamide] | > 50 nM |  | > 50 nM | > 50 nM |  | 
COc1ccc(F)cc1C(=O)NCc1ccc(-c2ncc(-c3cnn4ccncc34)c3[nH]nc(N)c23)cc1 [Example 109, N-(4-(3-amino-7-(pyrazolo[1,5-a]pyrazin-3-yl)-1H-pyrazolo[4,3-c]pyridin-4-yl)benzyl)-5-fluoro-2-methoxybenzamide] | > 50 nM |  | > 50 nM | > 50 nM |  | 
COc1ccc(F)cc1C(=O)NCc1ccc(-c2ncc(-c3cnc4cccnn34)c3[nH]nc(N)c23)cc1 [Example 110, N-(4-(3-amino-7-(imidazo[1,2-b]pyridazin-3-yl)-1H-pyrazolo[4,3-c]pyridin-4-yl)benzyl)-5-fluoro-2-methoxybenzamide] | > 50 nM |  | > 50 nM | > 50 nM |  | 
COc1ccc(F)cc1C(=O)NCc1ccc(-c2ncc(-c3ccnc4ccnn34)c3[nH]nc(N)c23)cc1 [Example 111, N-(4-(3-amino-7-(pyrazolo[1,5-a]pyrimidin-7-yl)-1H-pyrazolo[4,3-c]pyridin-4-yl)benzyl)-5-fluoro-2-methoxybenzamide] | > 50 nM |  | > 50 nM | > 50 nM |  | 
COc1ccc(F)cc1C(=O)NCc1ccc(-c2nccc3[nH]nc(N)c23)cc1 [Example 116, N-(4-(3-amino-1H-pyrazolo[4,3-c]pyridin-4-yl)benzyl)-5-fluoro-2-methoxvbenzamide] | > 50 nM |  | > 50 nM | > 50 nM |  | 
N-(4-(3-amino-7-(1,7-naphthyridin-2-yl)-1H-pyrazolo[4,3-c]pyridin-4-yl)benzyl)-5-fluoro-2-methoxybenzamide [Example 49] |  | > 50 nM |  |  | > 50 nM | > 50 nM

Now from value to molecule, other results behind:

IC50 (Ramos cells with BTK WT; Homo sapiens, Ramos) | IC50 (Ramos cells with BTK WT) | Molecule | IC50 (NIH/3T3 BTK C481S cells; [1]) | IC50 (NIH/3T3 BTK WT cells; [2]) | IC50 (NIH/3T3 BTK C481S cells; phosphorylated BTK Y223, NIH/3T3 BTK C481S cells) | IC50 (NIH/3T3 BTK WT cells; phosphorylated BTK Y223, NIH/3T3 BTK WT cells)
5 to 10 nM |  | COc1ccc(F)cc1C(=O)NCc1ccc(-c2nc(-c3ccccc3Cl)cc3[nH]nc(N)c23)cc1 [Example 88, N-(4-(3-amino-6-(2-chlorophenyl)-1H-pyrazolo[4,3-c]pyridin-4-yl)benzyl)-5-fluoro-2-methoxybenzamide] | > 50 nM | 10 to 50 nM |  | 
10 to 50 nM |  | COc1ccc(F)cc1C(=O)NCc1ccc(-c2nc(-c3c(Cl)cccc3Cl)cc3[nH]nc(N)c23)cc1 [Example 89, N-(4-(3-amino-6-(2,6-dichlorophenyl)-1H-pyrazolo[4,3-c]pyridin-4-yl)benzyl)-5-fluoro-2-methoxybenzamide] | > 50 nM | 10 to 50 nM |  | 
10 to 50 nM |  | Nc1n[nH]c2cc(C3CC[S+]([O-])CC3)nc(-c3ccc(CNC(=O)c4cc(F)ccc4O)cc3)c12 (stereo not drawn) [Example 92, N-(4-(3-amino-6-(1-oxidotetrahydro-2H-thiopyran-4-yl)-1H-pyrazolo[4,3-c]pyridin-4-yl)benzyl)-5-fluoro-2-hydroxybenzamide] | > 50 nM | > 50 nM |  | 
5 to 10 nM |  | COc1ccc(F)cc1C(=O)NCc1ccc(-c2nc(C3CCCN(C(=O)Nc4ccccc4)C3)cc3[nH]nc(N)c23)cc1 (stereo not drawn) [Example 95, 3-(3-amino-4-(4-((5-fluoro-2-methoxybenzoylamino)methyl)phenyl)-1H-pyrazolo[4,3-c]pyridin-6-yl)-N-phenylpiperidine-1-carboxamide] | > 50 nM | > 50 nM |  | 
5 to 10 nM |  | COc1ccc(F)cc1C(=O)NCc1ccc(-c2nc(C3CCN(C(=O)Nc4ccccc4)CC3)cc3[nH]nc(N)c23)cc1 [Example 97, 4-(3-amino-4-(4-((5-fluoro-2-methoxvbenzoylamino)methyl)phenyl)-1H-pyrazolo[4,3-c]pyridin-6-yl)-N-phenylpiperidine-1-carboxamide] | > 50 nM | > 50 nM |  | 
≤ 5 nM |  | COc1ccc(F)cc1C(=O)NCc1ccc(-c2ncc(-c3ncn4ccccc34)c3[nH]nc(N)c23)cc1 [Example 113, N-(4-(3-amino-7-(imidazo[1,5-a]pyridin-1-yl)-1H-pyrazolo[4,3-c]pyridin-4-yl)benzyl)-5-fluoro-2-methoxybenzamide] | ≤ 5 nM | ≤ 5 nM |  | 
